In US11572341B2, “Biguanide compound and use thereof” (ImmunoMet Therapeutics Inc., priority 2014, dated 2023):
Like-named read-outs stand apart in the source and are kept apart here.

Key:
AMPKa [pT172] = assay: AMPKa activation [pT172] in MCF7 cell; format: cell-based
HCT116 cells = assay: Inhibitory effect against cancer cell proliferation (MTT); format: cell-based, human; settings: read-out: IC50 (uM) @ HCT116
Procedure: The formazane crystals thus formed were dissolved using dimethyl sulfoxide (DMSO) and absorbance of the solution was measured at 560 nm. After culturing for 48 hours, […] synthesized in Examples was indicated as cell viability (%) according to each treated concentration.

[1] = Homo sapiens, HCT-116, HCT116, MTT, 48 hours

| Compound | IC50 (HCT116 cells; [1]) [µM] | AMPKa activation [pT172] (Unit/ml) @ MCF7 cell (AMPKa [pT172]; 5 uM) [Unit/ml] | AMPKa activation [pT172] (Unit/ml) @ MCF7 cell (AMPKa [pT172]; 10 uM) [Unit/ml] | AMPKa activation [pT172] (Unit/ml) @ MCF7 cell (AMPKa [pT172]; 50 uM) | IC50 (HCT116 cells; HCT116, MTT, 48 hours) [µM] | IC50 (HCT116 cells; Homo sapiens, HCT-116, 48 h) [µM] |
| --- | --- | --- | --- | --- | --- | --- |
| Cl.N=C(N)NC(=N)N1CCCCCC1 [Example 139, N1-azepane Biguanide Hydrochloride] | > 100 | 5.7 | 5.8 | 10.9 Unit/ml | – | – |
| CC/N=C(\NCc1ccc2c(c1)OCO2)NC(=N)N.Cl [Example 100, N1-(benzo[d][1,3]dioxol-5-yl)methyl-N2-ethyl Biguanide Hydrochloride] | > 100 | 7.1 | 9.0 | 8.0 Unit/ml | – | – |
| Cl.N=C(N)NC(=N)NCc1ccc2c(c1)OCO2 [Example 112, N1-(benzo[d][1,3]dioxol-5-yl)methyl Biguanide Hydrochloride] | > 100 | – | – | 10.6 Unit/ml | – | – |
| CC(=O)c1ccc(NC(=N)NC(=N)N2CCCC2)cc1.Cl [Example 70, N1-pyrrolidin-N5-(4-acetyl)phenyl Biguanide Hydrochloride] | > 100 | 3.5 | 4.0 | 5.4 Unit/ml | – | – |
| COc1ccc(NC(=N)NC(=N)N2CCCCC2)cc1.Cl [Example 73, N1-piperidin-N5-(4-methoxy)phenyl Biguanide Hydrochloride] | > 100 | 3.9 | 4.5 | 9.1 Unit/ml | – | – |
| CN1CCN(C(=N)NC(=N)Nc2ccccc2Cl)CC1.Cl [Example 30, N1-(4-methyl)piperazin-N5-(2-chloro)phenyl Biguanide Hydrochloride] | > 100 | 4.2 | 4.0 | 4.2 Unit/ml | – | – |
| CC(C)(C)N(Cc1ccccc1)C(=N)NC(=N)Nc1ccc(Cl)cc1.Cl [Example 10, N1-(4-chloro)phenyl-N5-t-butyl-N5-benzyl Biguanide Hydrochloride] | > 100 | – | – | 10.4 Unit/ml | – | – |
| CN1CCN(C(=N)NC(=N)NCc2ccc(Cl)cc2)CC1.Cl [Example 31, N1-(4-methyl)piperazin-N5-(4-chloro)benzyl Biguanide Hydrochloride] | > 100 | 2.5 | 3.6 | 6.1 Unit/ml | – | – |
| CC1CNC(NC(=N)N2CCCCC2)=NC1=O.Cl (centres unmarked) [Example 155, N-(5-methyl-4-oxo-1,4,5,6-tetrahydropyrimidin-2-yl)piperidin-1-carboximidamide Hydrochloride] | > 100 | 3.3 | 2.8 | 3.9 Unit/ml | – | – |
| CCCCN(C)C(=N)NC(=N)N.Cl [Example 134, N1-methyl-N1-butyl Biguanide Hydrochloride] | > 100 | – | – | 16.2 Unit/ml | – | – |
| CN1CCN(C(=N)NC(=N)Nc2cccc(Cl)c2)CC1.Cl [Example 29, N1-(4-methyl)piperazin-N5-(3-chloro)phenyl Biguanide Hydrochloride] | > 100 | 4.0 | 5.4 | 6.8 Unit/ml | – | – |
| C/N=C(\NCCc1ccc2c(c1)OCO2)NC(=N)N.Cl [Example 102, N1-2-(benzo[d][1,3]dioxol-5-yl)ethyl-N2-methyl Biguanide Hydrochloride] | > 100 | 4.8 | 2.8 | 6.8 Unit/ml | – | – |
| Cl.N=C(NC(N)=NCCc1cccs1)N1CCCCC1 [Example 99, N1-piperidin-N2-(2-thiophen-2-yl)ethyl Biguanide Hydrochloride] | – | 4.0 | 2.9 | 3.6 Unit/ml | > 100 | – |
| Cl.N=C(NC(=N)Nc1cccc(C(F)(F)F)c1)Nc1cccnc1 [Example 41, N1-3-pyridin-N5-(3-trifluoromethyl)phenyl Biguanide Hydrochloride] | > 100 | 8.3 | 10.2 | 14.4 Unit/ml | – | – |
| Cl.N=C(N)NC(=N)Nc1ccc(Cl)cc1 [Example 110, N1-(4-chloro)phenyl Biguanide Hydrochloride] | – | – | – | 3.9 Unit/ml | – | 97.2 |

More lines, main results first:

| IC50 (HCT116 cells; [1]) [µM] | Compound | AMPKa activation [pT172] (Unit/ml) @ MCF7 cell (AMPKa [pT172]; 5 uM) [Unit/ml] | AMPKa activation [pT172] (Unit/ml) @ MCF7 cell (AMPKa [pT172]; 10 uM) [Unit/ml] | AMPKa activation [pT172] (Unit/ml) @ MCF7 cell (AMPKa [pT172]; 50 uM) | IC50 (HCT116 cells; HCT116, MTT, 48 hours) [µM] | IC50 (HCT116 cells; Homo sapiens, HCT-116, 48 h) [µM] |
| --- | --- | --- | --- | --- | --- | --- |
| 9.7 | CCOC1CCN(C(=N)NC(=N)Nc2ccc(OC(F)(F)F)cc2)CC1.Cl [Example 26, N1-(4-ethoxy)piperidin-N5-(4-trifluoromethoxy)phenyl Biguanide Hydrochloride] | 3.6 | 6.6 | cell death | – | – |
| > 100 | CN1CCN(C(=N)NC(=N)Nc2ccccc2F)CC1.Cl [Example 34, N1-(4-methyl)piperazin-N5-(2-fluoro)phenyl Biguanide Hydrochloride] | 4.5 | 3.7 | 7.0 Unit/ml | – | – |
| 14.1 | Cl.N=C(N)N/C(=N/c1ccc(Br)cc1)NCCc1ccccc1 [Example 95, N1-phenethvl-N2-(4-bromo)phenyl Biguanide Hydrochloride] | 4.9 | 6.8 | 23.6 Unit/ml | – | – |
| 2.5 | CC1CC(C)CN(C(=N)NC(=N)Nc2ccc(F)c(C(F)(F)F)c2)C1.Cl (centres unmarked) [Example 65, N1-(3,5-dimethyl)piperidin-N5-(3-trifluoromethyl-4-fluoro)phenyl Biguanide Hydrochloride] | 15.0 | 20.1 | cell death | – | – |
| 6.8 | CC1CCN(C(=N)NC(=N)Nc2ccc(OC(F)(F)F)cc2)CC1.Cl [Example 52, N1-(4-methyl)piperidin-N5-(4-trifluoromethoxy)phenyl Biguanide Hydrochloride] | 9.4 | 15.0 | cell death | – | – |
| 2.8 | CC1CC(C)CN(C(=N)NC(=N)Nc2ccc(OC(F)(F)F)cc2)C1.Cl (centres unmarked) [Example 62, N1-(3,5-dimethyl)piperidin-N5-(4-trifluoromethoxy)phenyl Biguanide Hydrochloride] | 8.5 | 26.6 | cell death | – | – |
| 73.6 | Cl.N=C(N)NC(=N)NCc1ccc(OC(F)(F)F)cc1 [Example 142, N1-(4-trifluoromethoxy)benzyl Biguanide Hydrochloride] | 4.7 | 6.0 | 7.2 Unit/ml | – | – |
| 36.1 | CC1CC(C)CN(C(=N)NC(=N)Nc2ccc(F)cc2)C1.Cl (centres unmarked) [Example 64, N1-(3,5-dimethyl)piperidin-N5=(4-fluoro)phenyl Biguanide Hydrochloride] | 2.2 | 4.4 | 31.4 Unit/ml | – | – |
| 6.7 | CC1CCN(C(=N)NC(=N)Nc2ccc(F)c(C(F)(F)F)c2)CC1.Cl [Example 54, N1-(4-methyl)piperidin-N5-(3-trifluoromethyl-4-fluoro)phenyl Biguanide Hydrochloride] | 4.9 | 8.9 | cell death | – | – |
| 8.6 | CC1CCN(C(=N)NC(=N)Nc2ccc(Br)cc2)CC1.Cl [Example 48, N1-(4-methyl)piperidin-N5-(4-bromo)phenyl Biguanide Hydrochloride] | 4.3 | 6.8 | cell death | – | – |
| 42.1 | Cl.N=C(NC(=N)N1CCCC1)Nc1cc(C(F)(F)F)ccc1Cl [Example 76, N1-pyrrolidin-N5-(2-chloro-5-trifluoromethyl)phenyl Biguanide Hydrochloride] | 4.5 | 4.7 | 8.8 Unit/ml | – | – |
| 43.2 | CN1CCN(C(=N)NC(=N)Nc2cccc(C(F)(F)F)c2)CC1.Cl [Example 21, N1-(4-methyl)piperazin-N5-(3-trifluoromethyl)phenyl Biguanide Hydrochloride] | 6.0 | 5.8 | 14.8 Unit/ml | – | – |
| 2.5 | CC1CCN(C(=N)NC(=N)Nc2ccc(C(F)(F)F)c(F)c2)CC1.Cl [Example 57, N1-(4-methyl)piperidin-N5-(3-fluoro-4-trifluoromethyl)phenyl Biguanide Hydrochloride] | 6.7 | 12.1 | cell death | – | – |
